From the NIST ThermoML archive (doi:10.1021/je900596d)
± gives the expanded uncertainty stated by the source.

Conditions: 357.06 K, Fluid (supercritical or subcritical phases), Vibrating tube method

SMILES: FC(F)=C(F)C(F)(F)F [hexafluoropropene]
- mass density (1651 kPa): 106.72 ± 0.16 kg/m3
- mass density (1667.9 kPa): 108.13 ± 0.16 kg/m3
- mass density (1685.3 kPa): 109.66 ± 0.16 kg/m3
- mass density (1702 kPa): 111.18 ± 0.17 kg/m3
- mass density (1718.9 kPa): 112.75 ± 0.17 kg/m3
- mass density (1735.9 kPa): 114.23 ± 0.17 kg/m3
- mass density (1753 kPa): 115.8 ± 0.17 kg/m3
- mass density (1769.9 kPa): 117.29 ± 0.18 kg/m3
- mass density (1786.9 kPa): 118.92 ± 0.18 kg/m3
- mass density (1803 kPa): 120.39 ± 0.18 kg/m3
- mass density (1819.2 kPa): 121.89 ± 0.18 kg/m3
- mass density (1847.5 kPa): 124.55 ± 0.19 kg/m3
- mass density (1875.7 kPa): 127.36 ± 0.19 kg/m3
- mass density (1903.2 kPa): 130.04 ± 0.2 kg/m3
- mass density (1931.1 kPa): 132.82 ± 0.2 kg/m3
- mass density (1957.3 kPa): 135.5 ± 0.21 kg/m3
- mass density (1986 kPa): 138.47 ± 0.21 kg/m3
- mass density (2038.9 kPa): 144.14 ± 0.22 kg/m3
- mass density (2064.4 kPa): 146.83 ± 0.23 kg/m3
- mass density (2091.5 kPa): 149.92 ± 0.24 kg/m3
- mass density (2116.5 kPa): 152.72 ± 0.24 kg/m3
- mass density (2145.2 kPa): 156.08 ± 0.25 kg/m3
- mass density (2172.7 kPa): 159.34 ± 0.26 kg/m3
- mass density (2200.4 kPa): 162.66 ± 0.26 kg/m3
- mass density (2225 kPa): 165.74 ± 0.27 kg/m3
- mass density (2253.6 kPa): 169.3 ± 0.28 kg/m3
- mass density (2283.1 kPa): 173.12 ± 0.29 kg/m3
- mass density (2311 kPa): 176.88 ± 0.3 kg/m3
- mass density (2341.3 kPa): 180.98 ± 0.31 kg/m3
- mass density (2367.5 kPa): 184.68 ± 0.32 kg/m3
- mass density (2394.8 kPa): 188.59 ± 0.33 kg/m3
- mass density (2419.3 kPa): 192.26 ± 0.34 kg/m3
- mass density (2446.6 kPa): 196.5 ± 0.36 kg/m3
- mass density (2475.8 kPa): 201.14 ± 0.37 kg/m3
- mass density (2500.5 kPa): 205.14 ± 0.38 kg/m3
- mass density (2527.1 kPa): 209.62 ± 0.39 kg/m3
- mass density (2552.5 kPa): 214.03 ± 0.42 kg/m3
- mass density (2579.2 kPa): 218.88 ± 0.43 kg/m3
- mass density (2607.1 kPa): 224.15 ± 0.45 kg/m3
- mass density (2634.5 kPa): 229.51 ± 0.48 kg/m3
- mass density (2660.8 kPa): 234.97 ± 0.51 kg/m3
- mass density (2686.6 kPa): 240.49 ± 0.51 kg/m3
- mass density (2714.4 kPa): 246.83 ± 0.55 kg/m3
- mass density (2743.6 kPa): 253.76 ± 0.59 kg/m3
- mass density (2771 kPa): 260.83 ± 0.66 kg/m3
- mass density (2795.2 kPa): 267.52 ± 0.72 kg/m3
- mass density (2819.6 kPa): 274.69 ± 0.73 kg/m3
- mass density (2846 kPa): 283.07 ± 0.81 kg/m3
- mass density (2871.1 kPa): 291.79 ± 1 kg/m3
- mass density (2896.7 kPa): 302.07 ± 1.2 kg/m3
- mass density (2920.7 kPa): 312.54 ± 1.6 kg/m3
- mass density (2945.8 kPa): 324.88 ± 1.3 kg/m3
- mass density (2970.4 kPa): 338.77 ± 1.5 kg/m3
- mass density (2995.1 kPa): 355.46 ± 2 kg/m3
- mass density (3000.2 kPa): 359.35 ± 2.1 kg/m3
- mass density (3002.3 kPa): 361.25 ± 2.2 kg/m3
- mass density (3004.8 kPa): 363.25 ± 2.3 kg/m3
- mass density (3007 kPa): 365.19 ± 2.4 kg/m3
- mass density (3009.1 kPa): 367.24 ± 2.4 kg/m3
- mass density (3011.2 kPa): 369.24 ± 2.5 kg/m3
- mass density (3013.5 kPa): 371.38 ± 2.7 kg/m3
- mass density (3017.2 kPa): 375.58 ± 2.8 kg/m3
- mass density (3020.4 kPa): 379.51 ± 2.8 kg/m3
- mass density (3023.1 kPa): 383.27 ± 2.7 kg/m3
- mass density (3025.3 kPa): 386.99 ± 3 kg/m3
- mass density (3027.3 kPa): 391.04 ± 3.4 kg/m3
